Experiments:
[1] = system: ear edema induced by croton oil; assay: Croton oil-induced ear edema test, local anti-inflammatory effect; format: in vivo, male ICR mice; details: mice, topical, 5 hours
Protocol: A-2: As animals, male ICR mice weighing 25 g were used.
A-4: To evaluate the in vivo anti-inflammatory effect of the inventive PMS compounds as listed above, the ear edema test was used as an acute inflammatory experimental model.
After inducing edema on one ear of mice by the application of croton oil, the sample of each of the PMS compounds as described above was dissolved in 80% chloroform. […] The other ear was applied only with the solvent, i.e., 80% chloroform.
After 5 hours of the initiation of the experiment, the ear tissue at the level of edema was collected by a gimlet from the skin, and the tissue collected was compared with one collected from the control part of the ear by a gimlet, to calculate the percent inhibition.
A-5: To calculate the statistical significance, the results obtained in each of the […] and the […] were evaluated by Student's t-test.

[2] = system: PLA2 of Crotalus durissus terrificus (group II); assay: Fluorometric anti-PLA2 assay, Crotalus durissus terrificus PLA2 (CB); format: biochemical; details: fluorometric method, read-out: Anti-PLA2 activity IC50 CB Fluo
Protocol: (§1) Phospholipase A2 hydrolyzes an ester linkage at the sn-2 position of glycerophospholipid and liberates fatty acids and lysophospholipids. The in vitro action of particular compounds was evaluated by the analysis of fatty acids according to the fluorometric method described in Radvanyi et al., Anal. Biochem. 1989, 177. 103-109, and by the analysis of lysophospholipids according to the UV spectrophotometric method described in Reynolds et al., Anal. Biochem. 1992, 204, 190-197.
(§2) Enzymes used were two secretory enzymes of group II (human recombinant PLA2, and PLA2 basic subunit isolated from Crotalus durissus terrificus), and a secretory enzyme of porcine pancreatic (group I) PLA2.
(§3) Regarding substrates, palmitoyl-2-(10-pyrenyl decanoyl)-sn-glycero-3-phosphatidylglycerolic acid as a fluorescent substrate was used in the fluorometric method, and the lithium salt of 1,2-bis-(dihexanylthio)-dideoxy-rac-glycero-3-phosphorylglycerol was used in the UV spectrophotometric method.
(§4) The fluorometric analysis was performed using a Perkin Elmer LS50 luminescence spectrometer in a unit dosage polystyrene cell having a size of 1 cm. The exact concentration of the fluorescent substrate was determined by UV Unicam spectrometry in a quartz cell.
PLA2 is an enzyme that hydrolyzes an ester linkage at the sn-2 position of phospholipid. […] After hydrolysis with the enzyme, fluorescence emitted by the liberated fatty acid (pyrenyl decanoic acid) complex with bovine serum albumin (BSA) is increased, and strong fluorescence emission is observed at 378 and 398 nm. The principle of the analysis is to measure a difference in fluorescence at 398 nm in order to examine the production of fatty acids liberated for a given period of time, thus determining the PLA2 activity. […]
The residual activity in the presence of an inhibitor was evaluated by slopes obtained in the absence and presence of an inhibitor, according to the following equation: Residual activity (%)=(S−S0) in the presence of inhibitor/(S−S0) in the absence of inhibitor […]

[3] = system: PLA2 of Crotalus durissus terrificus (group II); assay: UV spectrophotometric anti-PLA2 assay, Crotalus durissus terrificus PLA2 (CB); format: biochemical; details: UV spectrophotometric method, read-out: Anti-PLA2 activity IC50 CB Spectro
Protocol: as §1, §2, §3
The UV spectrophotometric analysis was performed on an ELx 808 Ultra Micro Plate Reader apparatus (96-well plate).
Lysothiophospholipid (LTPL) liberated by the lypolytic action of PLA2 in the presence of calcium reacts with dithionitrobenzoic acid (DTNB) present in medium to form an LTPL-TNB complex and an TNB-anion which induces the yellowing of reaction medium.
The measurement of enzymatic activity is performed in a multiple well plate of which each well contains 190 μl of 1× buffer, 2 μl of 10 mM DTNB, […] of 20 mM substrate, 2 μl of solvent or inhibitor solution, and 2 μl of PLA2 at a given concentration. The plate was stirred and 2 μl of 1 M calcium chloride was added to initiate the enzymatic reaction. Substrate was used at a lower concentration than micellar critical concentration (about 1 mM) in a monomeric form, and the ratio of substrate to enzyme was respected. […]
(§5) Good conditions of measurement include saturation of enzyme. […] It calculated directly the initial velocity of the reaction. […]
(§6) 15 readings for each well (3 wells per concentration) were performed at intervals of 3 seconds.

[4] = target: T1, human recombinant PLA2 (group II) (Homo sapiens, UniProt P14555); assay: Fluorometric anti-PLA2 assay, human recombinant PLA2 (group II); format: biochemical; details: measured for fluorescence with human recombinant PLA2 (group II); read-out: Anti-PLA2 activity IC50 HPLA2
T1 sequence (P14555 21-144): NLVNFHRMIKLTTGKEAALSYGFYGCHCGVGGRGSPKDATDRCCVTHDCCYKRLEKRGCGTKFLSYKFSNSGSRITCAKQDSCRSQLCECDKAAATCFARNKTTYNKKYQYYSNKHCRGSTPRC
Protocol: as §1, §2, §3, §4
(§7) PLA2 is an enzyme that hydrolyzes an ester linkage at the sn-2 position of phospholipid. […] After hydrolysis with the enzyme, fluorescence emitted by the liberated fatty acid (pyrenyl decanoic acid) complex with bovine serum albumin (BSA) is increased, and strong fluorescence emission is observed at 378 and 398 nm. The principle of the analysis is to measure a difference in fluorescence at 398 nm in order to examine the production of fatty acids liberated for a given period of time, thus determining the PLA2 activity.
(§8) Measurement of the enzymatic activity was performed in a cell containing: 960 μl of Tris buffer; 50 mM HCl (pH 7.5); 0.5 M NaCl, 1 mM EGTA; and 1 μl substrate. This mixture was stirred under reflux for one minute to permit the formation of vesicles of substrate, and then, 10 μl of 10% SAB, 10 μl of solvent (ethanol or DMSO) or inhibitor solution, 10 μl of PLA2 to a given concentration and finally 10 μl of 1 M calcium chloride (CaCl2) for initiating the activity were successively added to the mixture under stirring.
(§9) Good conditions of measurement of the enzymatic activity include saturation of the enzyme, and thus, initial concentrations used are as follows: (i) human recombinant PLA2: 0.1 μl/ml; (ii) porcine pancreatic PLA2: 0.6 μl/ml; and (iii) Crotalus durissus terrificus (CB) PLA2: 0.05 μl/ml. Mother solution containing the inhibitor was prepared at an initial concentration of 10^−2 M.
(§10) The enzymatic activity is shown by a curve of which the original slope permits to calculate the initial velocity of the reaction. The following equation permits to calculate the enzymatic activity (A; μmol) of fatty acids liberated per minute. In the equation, S0 represents the slope of a curve in the absence of calcium (control), S the slope in the presence of calcium, V the volume (μl) of the substrate solution, and Fmax the signal of maximum fluorescence obtained at the end of the enzymatic reaction: [formula]
(§11) The residual activity in the presence of an inhibitor was evaluated by slopes obtained in the absence and presence of an inhibitor, according to the following equation: Residual activity (%)=(S−S0) in the presence of inhibitor/(S−S0) in the absence of inhibitor
(§12) Values obtained as a logarithmic function of the inhibitor concentrations used permit to determine the IC50 value, i.e., the inhibitor concentration required to cause 50% reduction of the enzymatic activity. The lower the IC50 value, the higher the inhibitory activity of a compound tested.

[5] = system: carrageenan-induced edema; assay: Carrageenan-induced edema test in rats; format: in vivo; details: dose of 10 mg/kg
Protocol: An in vivo activity assay was performed by a carrageenan-induced edema test in rats.
In the experimental protocol conducted, indomethacin as the reference product, or the compound No. 5, was administered intraperitoneally or orally at one hour before the injection of carrageenan into the hind leg of the rats. The volume of edema was measured at 0, 3 and 5 hours after the injection of carrageenan. The doses used were 5, 10 and 20 mg/kg for the two products tested.

[6] = target: T2, porcine pancreatic PLA2 (group I) (Sus scrofa, UniProt P00592); assay: Fluorometric anti-PLA2 assay, porcine pancreatic PLA2 (group I); format: biochemical; details: measured for fluorescence with porcine pancreatic PLA2 (group I); read-out: Anti-PLA2 activity IC50 PPLA2
Protocol: as §1, §2, §3, §4, §7, §8, §9, §10, §11, §12

[7] = target: T2, porcine pancreatic PLA2 (group I); assay: UV spectrophotometric anti-PLA2 assay, porcine pancreatic PLA2 (group I); format: biochemical; details: UV spectrophotometric method, read-out: Anti-PLA2 activity IC50 PPLA2 spectro
Protocol: as §1, §2, §3
The UV spectrophotometric analysis was performed on an ELx 808 Ultra Micro Plate Reader apparatus (96-well plate). […]
as §5, §6

T2 sequence (P00592 23-146): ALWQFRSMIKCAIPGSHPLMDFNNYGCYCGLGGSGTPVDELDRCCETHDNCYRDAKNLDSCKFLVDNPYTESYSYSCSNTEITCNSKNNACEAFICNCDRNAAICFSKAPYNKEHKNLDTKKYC

| Molecule | IC50 [4] [µM] | IC50 [6] [µM] | also measured |
| --- | --- | --- | --- |
| 1-[4′-(4,5-dihydro-1,2,4(4H)-5-oxo-oxadiazol-3-ylmethyl)benzyl]-4-tetradecylpiperazine [PMS 1281] |  |  | Edema inhibition (%) ([1]; 1 mg/ear): 47.83 ± 12.34% |
| CCCCCCCCCCCCCCCCCCN1CCN(C(=O)c2ccc(Cc3noc(=O)[nH]3)cc2)CC1 [Compound 6, 1-[4′-(4,5-dihydro-1,2,4(4H)-5-oxo-oxadiazol-3-ylmethyl)benzoyl]-4-octadecylpiperazine] | 0.8 |  | IC50 [2]: 1.5 µM; IC50 [3]: 2 µM |
| COc1ccc2c(c1)c(CC(=O)O)c(C)n2C(=O)c1ccc(Cl)cc1 [Indomethacin, indomethacin] |  |  | inhibition of edema ([5]; intraperitoneal route, given one hour before carrageenan): 79%; inhibition of edema ([5]; oral route, at 5 hours after the injection of carrageenan): 16%; Edema inhibition (%) ([1]; 0.5 mg/ear): 43.11 ± 8.79% |
| CCCCCCCCCCCCCCN1CCN(C(=O)c2ccc(CCCc3noc(=O)[nH]3)cc2)CC1 [Example 9, 1-[4′-(4,5-dihydro-1,2,4(4H)-5-oxo-oxadiazol-3-ylpropyl)benzoyl]-4-tetradecylpiperazine] | 5.3 | > 100 |  |
| CCCCCCCCCCCCN1CC(C)N(C(=O)c2ccc(Cc3noc(=O)[nH]3)cc2)CC1C (centres unmarked) [Compound 13, 1-[4′-(4,5-dihydro-1,2,4(4H)-5-oxo-oxadiazol-3-ylmethyl)benzoyl]-2,5-dimethyl-4-dodecylpiperazine] |  | > 100 | Edema inhibition (%) ([1]; 1 mg/ear): 62.79 ± 3.23% |
| CCCCCCCCCCCCCCCCCCN1CCN(c2ccc(Cc3noc(=O)[nH]3)cc2)CC1 [Compound 10, 1-[4′-(4,5-dihydro-1,2,4(4H)-5-oxo-oxadiazol-3-ylmethyl)phenyl]-4-octadecylpiperazine] | 2.71 | > 100 |  |
| CCCCCCCCCCCCCCN1CCN(C(=O)c2ccc(Cc3noc(=O)[nH]3)cc2)CC1 [Example 8, 1-[4′-(4,5-dihydro-1,2,4(4H)-5-oxo-oxadiazol-3-ylmethyl)benzoyl]-4-tetradecylpiperazine] | 18.7 | > 100 |  |
| CCCCCCCCCCCCCCCCCCN1CCN(C(=O)c2ccc(C=C3SC(=O)NC3=O)cc2)CC1 [Compound 14, [4-(4′-octadecylpiperazine-1′-ylcarbonyl)benzylidene]-1,3-thiazolidine-2,4-dione] | 0.28 | 10 | IC50 [2]: 0.4 µM; IC50 [3]: 0.4 µM; IC50 [7]: > 100 µM |
| CCCCCCCCCCCCCCCCCCN1CCN(C(=O)c2ccc(CC3SC(=O)NC3=O)cc2)CC1 (centres unmarked) [Compound 15, 1-[4′-(2,4-dioxo-1,3-thiazolidin-5-ylmethyl)benzoyl]-4-octadecylpiperazine] | 1 | > 100 | IC50 [2]: 1.4 µM; IC50 [3]: 2 µM |
| 1-[4′-(4,5-dihydro-1,2,4(4H)-5-oxo-oxadiazol-3-ylmethyl)benzoyl]-4-dodecylpiperazine [PMS 1314] |  |  | Edema inhibition (%) ([1]; 1 mg/ear): 28.5 ± 6.85% |
| CCCCCCCCCCCCCCN1CCN(Cc2ccc(Cc3noc(=O)[nH]3)cc2)C(=O)C1 [Example 7, 1-[4′-(4,5-dihydro-1,2,4(4H)-5-oxo-oxadiazol-3-ylmethyl)benzyl]-4-tetradecylpiperazin-2-one] | 30 | > 100 |  |
| 1-[4′-(4,5-dihydro-1,2,4(4H)-5-oxo-oxadiazol-3-ylmethyl)benzyl]-4-tetradecylpiperazine [Compound 2] | > 10 |  | Edema inhibition (%) ([1]; 1 mg/ear, listed as PMS 1227): 51.45 ± 11.67% |

From patent publication US20050075345A1, “Novel inhibitor compounds specific of secreted non-pancreatic human a2phospholipase of group II” (Yang Ji Chemical Company Ltd., priority 2001, published 2005)
